Test results: patent US20090312407A1, “Synthetic Flavonoids and Pharmaceutical Compositions and Therapeutic Methods of Treatment of Cancer and other Pathologies” (priority 2007, published 2009)
Values joined by “and” are separate entries in the source; they are usually repeats but may differ in a detail not shown here. Identical values can stand only once. “Also recorded” adds a separate entry of the source. Like-named read-outs stand apart in the source and are kept apart here.

Assays:
Format in all cases: cell-based
[1] = tested on: PC-3 cells; assay: Cytotoxicity on PC-3 cells; conditions: for inhibitory activity / growth inhibition compared to AZT: PC-3 cells, same conditions as AZT
Description: (§1) The purified and identified analogs were subjected to in vitro biological testing.

[2] = tested on: H-9 cells; assay: Cytotoxicity on H-9 cells; conditions: for Cells (×10^4) Mean / Cells (×10^4): Table 3, 12-05 to 12-09/2005; for % Inhibition / inhibition at 1 µg/mL / inhibition at 5 µg/mL / inhibition at 10 µg/mL / inhibition at 50 µg/mL: vs 2% DMSO, Table 3; for inhibitory activity / growth inhibition compared to AZT: H-9 cells, same conditions as AZT; for inhibition at 1 µg/mL / inhibition at 5 µg/mL / inhibition at 10 µg/mL / inhibition at 50 µg/mL: Homo sapiens; for inhibition at 1 µg/mL: H9, 1 μg/ml; for inhibition at 5 µg/mL: H9, 5 μg/ml; for inhibition at 10 µg/mL: H9, 10 μg/ml; for inhibition at 50 µg/mL: H9, 50 μg/ml
Description: as §1
These three congeners were further evaluated in H9 and PC3 cells. AZT was employed as a positive control in all of these experiments.

[3] = tested on: MCF-7 cells; assay: Cytotoxicity on MCF-7 cells; conditions: for % Inhibition / inhibition at 1 µg/mL / inhibition at 5 µg/mL / inhibition at 10 µg/mL / inhibition at 50 µg/mL: vs 2% DMSO, Table 6; for inhibition at 1 µg/mL / inhibition at 5 µg/mL / inhibition at 10 µg/mL / inhibition at 50 µg/mL: Homo sapiens; for inhibition at 1 µg/mL: MCF7, 1 μg/ml; for inhibition at 5 µg/mL: MCF7, 5 μg/ml; for inhibition at 10 µg/mL: MCF7, 10 μg/ml; for inhibition at 50 µg/mL: MCF7, 50 μg/ml; for inhibitory activity / growth inhibition compared to AZT: MCF-7 cells, same conditions as AZT; for cytotoxic activities on MCF-7 cells: different drug concentrations
[4] = single count, read-out: % Inhibition
[5] = 1 μg/ml, Table 6, 11-14 to 11-18/2005
[6] = 1 μg/ml, single count, Table 6, 11-14 to 11-18/2005
[7] = 5 μg/ml, Table 6, 11-14 to 11-18/2005
[8] = 5 μg/ml, single count, Table 6, 11-14 to 11-18/2005
[9] = 10 μg/ml, Table 6, 11-14 to 11-18/2005
[10] = 10 μg/ml, single count, Table 6, 11-14 to 11-18/2005
[11] = 50 μg/ml, Table 6, 11-14 to 11-18/2005
[12] = 50 μg/ml, single count, Table 6, 11-14 to 11-18/2005

## COc1ccc(C=CC(=O)c2cc(Br)cc(Br)c2O)cc1OC (stereo in doubt) [CHBr 2M]
[1]
  inhibitory activity / growth inhibition compared to AZT: much superior; also recorded: as good or somewhat better
[2]; 1 μg/ml
  Cells (×10^4) Mean: 47.42 ×10^4
[2]; 1 μg/ml, single count
  % Inhibition: 9.45% and 1.49% and 5.97%
  Cells (×10^4): 45.5 ×10^4 and 49.5 ×10^4 and 47.3 ×10^4
[2]; 5 μg/ml
  Cells (×10^4) Mean: 25.33 ×10^4
[2]; 5 μg/ml, single count
  % Inhibition: 50.75% and 48.76%
  Cells (×10^4): 25.5 ×10^4 and 24.8 ×10^4 and 25.8 ×10^4
[2]; 10 μg/ml
  Cells (×10^4) Mean: 17.58 ×10^4
[2]; 10 μg/ml, single count
  % Inhibition: 67.68%
  Cells (×10^4): 18.3 ×10^4 and 16.3 ×10^4
[2]; 50 μg/ml
  Cells (×10^4) Mean: 11.58 ×10^4
[2]; 50 μg/ml, single count
  % Inhibition: 77.11%
  Cells (×10^4): 11.8 ×10^4 and 11.5 ×10^4
[2]
  inhibitory activity / growth inhibition compared to AZT: much superior; also recorded: as good or somewhat better
[2]; read-out: % Inhibition Mean
  inhibition at 1 µg/mL: 5.64%
  inhibition at 5 µg/mL: 49.6%
  inhibition at 10 µg/mL: 65%
  inhibition at 50 µg/mL: 77%
[2]; [4]
  inhibition at 5 µg/mL: 49.2%
  inhibition at 10 µg/mL: 63.7%
  inhibition at 50 µg/mL: 76.6%
[3]; [5]
  Cells (×10^4) Mean: 49.08 ×10^4
[3]; 1 μg/ml, single count
  % Inhibition: 10.95% and 18.73%
[3]; [6]
  Cells (×10^4): 48.8 ×10^4 and 51.5 ×10^4 and 47.0 ×10^4
[3]; [7]
  Cells (×10^4) Mean: 26.25 ×10^4
[3]; 5 μg/ml, single count
  % Inhibition: 56.34% and 54.18%
[3]; [8]
  Cells (×10^4): 27.0 ×10^4 and 25.3 ×10^4 and 26.5 ×10^4
[3]; [9]
  Cells (×10^4) Mean: 7.92 ×10^4
[3]; 10 μg/ml, single count
  % Inhibition: 84.44% and 87.03%
[3]; [10]
  Cells (×10^4): 7.3 ×10^4 and 9.0 ×10^4 and 7.5 ×10^4
[3]; [11]
  Cells (×10^4) Mean: 0.75 ×10^4
[3]; 50 μg/ml, single count
  % Inhibition: 98.27% and 99.14%
[3]; [12]
  Cells (×10^4): 0.8 ×10^4 and 1.0 ×10^4 and 0.5 ×10^4
[3]; [4]
  inhibition at 1 µg/mL: 15.7%
  inhibition at 5 µg/mL: 53.3%
  inhibition at 10 µg/mL: 87.5%
  inhibition at 50 µg/mL: 98.7%
[3]; read-out: % Inhibition Mean
  inhibition at 1 µg/mL: 15.1%
  inhibition at 5 µg/mL: 54.6%
  inhibition at 10 µg/mL: 86.3%
  inhibition at 50 µg/mL: 98.7%
[3]
  inhibitory activity / growth inhibition compared to AZT: much superior; also recorded: as good or somewhat better
  cytotoxic activities on MCF-7 cells: good cytotoxic activities

## COc1ccc(C=CC(=O)c2cc(Cl)cc(Cl)c2O)cc1OC (stereo in doubt) [CHCl 2M]
[1]; listed as CHCI2M
  inhibitory activity / growth inhibition compared to AZT: much superior; also recorded: as good or somewhat better
[2]; 1 μg/ml
  Cells (×10^4) Mean: 42.25 ×10^4
[2]; 1 μg/ml, single count
  % Inhibition: 15.42%
  Cells (×10^4): 42.0 ×10^4 and 42.3 ×10^4 and 42.5 ×10^4
[2]; 5 μg/ml
  Cells (×10^4) Mean: 24.00 ×10^4
[2]; 5 μg/ml, single count
  % Inhibition: 52.74% and 51.74%
  Cells (×10^4): 24.0 ×10^4 and 23.8 ×10^4 and 24.3 ×10^4
[2]; 10 μg/ml
  Cells (×10^4) Mean: 12.92 ×10^4
[2]; 10 μg/ml, single count
  % Inhibition: 77.11% and 71.64%
  Cells (×10^4): 13.0 ×10^4 and 11.5 ×10^4 and 14.3 ×10^4
[2]; 50 μg/ml
  Cells (×10^4) Mean: 4.50 ×10^4
[2]; 50 μg/ml, single count
  % Inhibition: 90.05%
  Cells (×10^4): 4.0 ×10^4 and 4.5 ×10^4 and 5.0 ×10^4
[2]; listed as CHCI2M
  inhibitory activity / growth inhibition compared to AZT: much superior; also recorded: as good or somewhat better
[2]; [4]
  inhibition at 1 µg/mL: 16.4%
  inhibition at 5 µg/mL: 52.2%
  inhibition at 10 µg/mL: 74.1%
  inhibition at 50 µg/mL: 92%
[2]; read-out: % Inhibition Mean
  inhibition at 1 µg/mL: 15.9%
  inhibition at 5 µg/mL: 52.2%
  inhibition at 10 µg/mL: 74.3%
  inhibition at 50 µg/mL: 91%
[3]; [5]
  Cells (×10^4) Mean: 49.42 ×10^4
[3]; 1 μg/ml, single count
  % Inhibition: 16.14% and 13.54%
[3]; [6]
  Cells (×10^4): 49.8 ×10^4 and 48.5 ×10^4 and 50.0 ×10^4
[3]; [7]
  Cells (×10^4) Mean: 32.33 ×10^4
[3]; 5 μg/ml, single count
  % Inhibition: 45.53% and 42.07%
[3]; [8]
  Cells (×10^4): 32.0 ×10^4 and 31.5 ×10^4 and 33.5 ×10^4
[3]; [9]
  Cells (×10^4) Mean: 10.42 ×10^4
[3]; 10 μg/ml, single count
  % Inhibition: 81.41% and 81.84%
[3]; [10]
  Cells (×10^4): 10.0 ×10^4 and 10.8 ×10^4 and 10.5 ×10^4
[3]; [11]
  Cells (×10^4) Mean: 0.75 ×10^4
[3]; 50 μg/ml, single count
  % Inhibition: 99.14%
[3]; [12]
  Cells (×10^4): 1.0 ×10^4 and 0.5 ×10^4 and 0.8 ×10^4
[3]; [4]
  inhibition at 1 µg/mL: 14%
  inhibition at 5 µg/mL: 44.7%
  inhibition at 10 µg/mL: 82.7%
  inhibition at 50 µg/mL: 98.3%
[3]; read-out: % Inhibition Mean
  inhibition at 1 µg/mL: 14.6%
  inhibition at 5 µg/mL: 44.1%
  inhibition at 10 µg/mL: 82%
  inhibition at 50 µg/mL: 98.7%
[3]; listed as CHCI2M
  inhibitory activity / growth inhibition compared to AZT: much superior; also recorded: as good or somewhat better
[3]
  cytotoxic activities on MCF-7 cells: good cytotoxic activities

## Cc1cn([C@H]2C[C@H](N=[N+]=[N-])[C@@H](CO)O2)c(=O)[nH]c1=O [AZT, reference compound]
[1]; 5 μg/ml, Table 7, 11-11 to 11-17/2005
  Cells (×10^4) Mean: 71.33 ×10^4
[1]; 10 μg/ml, single count, vs 2% DMSO, Table 7
  % Inhibition: 38.73%
[3]; 1 μg/ml, Table 12, 9-12 to 9-16/2005
  Cells (×10^4) Mean: 45.25 ×10^4
[3]; 1 μg/ml, single count, Table 12, 9-12 to 9-16/2005
  Cells (×10^4): 46.0 ×10^4 and 45.3 ×10^4 and 44.5 ×10^4
[3]; 5 μg/ml, Table 12, 9-12 to 9-16/2005
  Cells (×10^4) Mean: 28.58 ×10^4
[3]; 5 μg/ml, single count, Table 12, 9-12 to 9-16/2005
  Cells (×10^4): 27.8 ×10^4 and 28.0 ×10^4
[3]; 10 μg/ml, Table 12, 9-12 to 9-16/2005
  Cells (×10^4) Mean: 20.17 ×10^4
[3]; 10 μg/ml, single count, Table 12, 9-12 to 9-16/2005
  Cells (×10^4): 17.5 ×10^4 and 21.5 ×10^4

## COc1cc(C=CC(=O)c2cc(Cl)cc(Cl)c2O)cc(OC)c1OC [CHCl 3M]
[3]; 5 μg/ml, single count, Table 17, 12-12 to 12-16/2005
  Cells (×10^4): 53.0 ×10^4
